Assay results: patent US7842470B2, “Method for pharmacoperones correction of GnRHR mutant protein misfolding” (Oregon Health & Science University, priority 2001, dated 2010)
Substitutions are numbered along the chain they refer to.

What was measured:
[1] = biological target: T1, mutant GnRHR (Homo sapiens, UniProt P30968, E90K); assay: Pharmacological rescue of GnRHR mutants (Example 1), IP production and agonist binding; type: cell-based
T1 construct: expressed in transfected cells; host or cells: COS-7
T1 sequence (P30968 1-328 E90K): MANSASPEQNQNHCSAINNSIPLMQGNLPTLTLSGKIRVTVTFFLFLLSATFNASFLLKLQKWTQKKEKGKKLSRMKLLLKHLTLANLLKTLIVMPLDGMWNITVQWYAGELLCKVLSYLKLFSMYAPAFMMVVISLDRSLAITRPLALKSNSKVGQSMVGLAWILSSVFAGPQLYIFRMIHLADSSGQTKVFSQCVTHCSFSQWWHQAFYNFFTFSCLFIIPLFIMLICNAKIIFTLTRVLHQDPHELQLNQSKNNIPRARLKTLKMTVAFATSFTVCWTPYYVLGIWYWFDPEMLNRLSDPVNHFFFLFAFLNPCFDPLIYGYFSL
Description: WT and mutant hGnRHR were separately transiently expressed in COS-7 cells using standard molecular biology methods (Leaños-Miranda et al., J. Clin. Endo. Metab., 87:4825-8, 2002). Briefly, cells were maintained in growth medium (DMEM) containing 10% fetal calf serum (FCS; Life Technologies, Grand Island, N.Y.) and 20 μg/ml gentamicin (Gemini Bioproducts, Calabasas, Calif.) in a 5% CO2 humidified atmosphere at 37° C. One hundred thousand cells/well were seeded in 24-well plates (Costar, Cambridge, Mass.). Twenty-four hours after plating, the cells were transfected with 0.05 μg DNA per well (for IP production assay) or 0.1 μg DNA per well (for saturation binding studies) using 2 μl lipofectamine in 0.25 ml OPTI-MEM containing 1% DMSO (vehicle) or 1 μg/ml of each indole, quinoline or erythromycin macrolide prepared in vehicle.
After five hours, 0.25 ml of DMEM containing 20% FCS with or without indole, quinoline or erythromycin macrolide (as indicated) was added to each well. The cells were incubated for an additional 18 hours at 37° C., then washed and fresh growth medium with (1 μg/ml) or without the therapeutic agent was added to the cells for another 28 hours at 37° C. […]
The quantification of IP production and saturation binding were determined as described previously (Huckle and Conn, Methods Enzymol. 141:149-55, 1987).
To determine the saturation binding, the cells were washed twice with warm DMEM/BSA prior to incubating with the GnRH agonist [^125I]-buserelin [D-tert-butyl-Ser^6, des-Gly^10, Pro^9, ethylamide-GnRH; specific activity, 700 μCi/μg; 230,000 cpm/0.5 ml, pH 7.4; Hoeschst-Roussel Pharmaceuticals (Somerville, N.J.); also see Marian et al., Mol. Pharmacol. 19:399-405, 1981] and nonspecific binding was measured in the presence of 1 μM GnRH (NIDDK National Hormone and Peptide Program, Bethesda, Md.). […] The sample was transferred to a glass tube and counted in a gamma counter (Packard Instruments; Downers Grove, Ill.). Specific binding was calculated by subtracting non-specific binding (binding measured in the presence of 1 μM GnRH) from total binding (no GnRH). […]

[2] = biological target: T2, WT hGnRHR (Homo sapiens, UniProt P30968); assay: IP production in COS-7 cells transfected with WT hGnRHR, Buserelin dose response (FIG. 13 inset); type: cell-based; conditions: COS-7 cells transfected with 100 ng of WT hGnRHR
T2 construct: expressed in transfected cells; host or cells: COS-7
T2 sequence (P30968 1-328): T1 sequence (P30968 1-328 E90K) with K90E
Description: For tranfections, 5×10^4 COS-7 cells were plated in 0.25 ml growth medium in 48 well Costar cell culture plates. Twenty-four hours after plating, the cells were washed once with 0.5 ml OPTI-MEM (Promega, Madison, Wis.) then transfected with 100 ng total cDNA (pcDNA3.1+without insert “empty vector” was included to bring the total cDNA to 100 ng/well, unless otherwise indicated) and 1 μl lipofectamine in 0.125 ml OPTI-MEM (room temperature), according to manufacture's instructions. For co-transfection, the cells were co-transfected with WT GnRHR (5 ng/well) and empty vector or mutant GnRHR (95 ng/well) or other GPCR cDNAs, as indicated, using 1 μl Lipofectamine (Promega, Madison, Wis.) in 0.125 ml Opti-MEM. Constant amounts of Opti-MEM were achieved by the addition of sterile milli-Q H2O to the cDNA mixtures. […]
The IP production was measured 27 hours after transfection, as described in Example 1, except that following the preloading, cells were treated for 2 hours in 0.25 ml of Buserelin (100 nM), and at the end of the incubation period, the cells were frozen and thawed in the presence of 0.5 ml of 0.1 M formic acid. Data (n≧3) was analyzed with one-way ANOVA and then paired Student's t-test (SigmaStat 3.0, Jandel Scientific Software, Chicago, Ill.; P<0.05 was considered significant). […]

SMILES	restoration of function to mutant GnRHR [1]	Buserelin concentration giving maximal response on IP production [2]
CC[C@H]1OC(=O)[C@H](C)[C@@H](O[C@H]2C[C@@](C)(OC)[C@@H](O)[C@H](C)O2)[C@H](C)[C@@H](O[C@@H]2O[C@H](C)C[C@H](N(C)C)[C@H]2O)[C@](C)(O)C[C@@H](C)C(=O)[C@H](C)[C@@H](O)[C@]1(C)O [A-7662.0, Erythromycin A]	known not to bind to or restore function to mutant protein	
CCNC(=O)[C@@H]1CCCN1C(=O)[C@H](CCCNC(=N)N)NC(=O)[C@H](CC(C)C)NC(=O)[C@@H](COC(C)(C)C)NC(=O)[C@H](Cc1ccc(O)cc1)NC(=O)[C@H](CO)NC(=O)[C@H](Cc1c[nH]c2ccccc12)NC(=O)[C@H](Cc1cnc[nH]1)NC(=O)[C@@H]1CCC(=O)N1 [Buserelin, D-tert-butyl-Ser^6, des-Gly^10, Pro^9, ethylamide-GnRH]		10^−7 M
Cc1cc(C)cc(-c2[nH]c3ccc(C(C)(C)C(=O)N4CCN(C)CC4)cc3c2[C@H](C)CNCCc2ccc(C(=O)O)cc2)c1.O=C(O)C(F)(F)F [IN31b, (2S)-N-[2-(4-carboxyphenyl)ethyl]-2-[5-[1,1-dimethyl-2-(4-methylpiperazin-1-yl)-2-oxoethyl]-2-(3,5-dimethylphenyl)-1H-indol-3-yl]propan-1-aminium trifluoroacetate]	known not to bind to or restore function to mutant protein	
COc1cc2c(cc1OC)CN(C(=O)c1cc3c(OCC[C@@H]4CCCCN4)c(-c4cc(C)cc(C)c4)c(=O)[nH]c3cc1Cl)CC2.O=C(O)C(F)(F)F [Q08, (2S)-2-(2-{[7-chloro-6-[(6,7-dimethoxy-3,4-dihydroisoquinolin-2(1H)-yl)carbonyl]-3-(3,5-dimethylphenyl)-2-oxo-1,2-dihydroquinolin-4-yl]oxy}ethyl)piperidinium trifluoroacetate]	known not to bind to or restore function to mutant protein	
